As a reminder, the mortality is the share of the test organisms that died. One may read the inhibition as how much of the control response was suppressed. As usually defined, the viability is a read-out of living cells in per cent, often relative to untreated cells.

Results on eight molecules are retold here after PMC8880129, “Plant- and Bacteria-Derived Compounds with Anti-Philasterides dicentrarchi Activity” (Pathogens, 2022).

The subject of one series is P. dicentrarchi. Details: method as in PMID 15212284, PMID 21987103, PMID 27334368. Conditions: cited from earlier work.
The next series deals with Amyloodinium ocellatum. Also on record: method as in PMID 32154278. Conditions: 24 h incubation period; cited from earlier work.
Another series has as its system S. parasitica. Also on record: method as in PMID 32154278. The settings on record: 0.1 mM; cited from earlier work.
Series [1] deals with Philasterides dicentrarchi. The series is described as follows: Anticiliate activity, ciliates maintained in seawater (LC100, LC50). The settings on record: 3 h incubation. Type of series: cell-based. The procedure: All experiments were carried out in triplicate.
The subject of series [2] is Philasterides dicentrarchi. In words: microbe, parasite or virus in culture. The settings on record: for mortality at 100 µM / GI50 / inhibition at 100 µM: Philasterides dicentrarchi; for Ciliate Mortality 3 h (%) / mortality at 100 µM: 3 h; for mortality at 100 µM: read-out: Ciliate Mortality 3 h (%), 100 μM, 3 h, culture medium, mean ± SD of three replicates; for inhibition at 100 µM: read-out: Growth Inhibition 24 h (%), 100 μM, 24 h, culture medium, mean ± SD of three replicates. The procedure:
P. dicentrarchi (isolate I1), obtained from an outbreak of scuticociliatosis in cultured turbot in Galicia, was routinely cultured at 18 °C in complete sterile L15 medium (Leibovitz, PAA Laboratories GmbH, 1% salinity, pH 7.2) containing 90 mg/L each of adenosine, cytidine, and uridine, 150 mg/L of guanosine, 5 g/L of glucose, 400 mg/L of L-α-phosphatidylcholine, 200 mg/L of Tween 80, 10% of heat-inactivated foetal bovine serum (FBS), and 10 mL/L of 100X antibiotic–antimycotic solution (100 units/mL of penicillin G, 0.1 mg/mL of streptomycin sulphate and 0.25 mg/mL of amphotericin B), as previously described. Alternatively, ciliates were cultured in seawater with autoclaved marine bacteria (10^6 cells/mL) supplied as food at 21 °C. The ciliates were cultured under normoxic conditions in tissue culture flasks fitted with vented caps that enabled aeration of the culture medium.
We tested the toxicity to P. dicentrarchi of 26 compounds of natural origin (Table 1). The compounds were prepared in 10 mM stock solutions in dimethyl sulfoxide (DMSO) and maintained at −20 °C until use. In addition, the Pseudomonas H6 lipopeptide surfactant (PS) was prepared, lyophilised and stored at −20 °C [37]. A stock solution of PS was prepared in distilled water (1000 ppm) and diluted in culture medium or seawater at the final concentrations used in each assay and sterile filtered (through 0.2 µm filters) before being added to the parasites or EPC cells.
The anticiliate activity was assayed as previously described, with minor modifications. Ciliates were concentrated by centrifugation at 650× g for 5 min and resuspended in a medium at the concentration required for the assays. All experiments were carried out in triplicate. Wells containing ciliates in a culture medium or seawater without the test compounds were assayed as negative controls. To rule out any possible effects of the solvent (DMSO), triplicate wells with a culture medium or seawater containing the highest concentration of DMSO used (up to 1%) were also included. […] In these assays, the compounds were diluted in 1 mL of culture medium or seawater and added to the wells of 24-well sterile culture plates containing 2.5 × 10^4 ciliates per well, at final concentrations of […], 6.25, 12.5, 25, 50, and 100 µM in culture medium. The effects of the compounds on the motility and morphology of the ciliates were monitored periodically (at 30 min, 1, 2, 3, 24, and 48 h) under an inverted optical microscope. Ciliates were considered dead when they lysed and were not motile. The results obtained are expressed as percentage mortality for each experimental group. To estimate the total number of ciliates per well, the ciliates were inactivated by adding 0.25% glutaraldehyde and counted in a haemocytometer under an optical microscope. The lowest dose of the selected compounds resulting in 100% ciliate mortality (LC100) was assessed at 1, 2, and 3 h after incubation of parasites with sample dilutions (from 0 to 100 μg/mL, in 10 μg intervals). The concentration that inhibited 50% of ciliate growth (GI50), in comparison with the control group, was calculated with Excel software (Microsoft Office; Microsoft, Redmond, WA, USA) by plotting the dose-response data (log dose-per cent of growth inhibition) and applying linear regression (y = mx + b) for data fitting. The values were then calculated from the equation log GI50 = (50 − b)/m, where m is the slope y1 − y2/x1 − x2, and b is the intercept of the line.

The test system of another series is rainbow trout. Details: method as in PMID 17979099. The settings on record: 100 to 2000 ppm in the diet for four weeks; cited from earlier work.
The test system of a further series is EPC cells. The series is described as follows: Toxicity to EPC cell line, MTT assay. Type of series: cell-based, fish. The settings on record: 24 h incubation, compound at its GI50 (24 h). As for the experimental part:
(§1) We used the Epithelioma Papulosum Cyprini (EPC) cell line, acquired from the American Type Culture Collection (ATCC®, Manassas, VA, USA), as a control for toxicity. The cell line, kindly provided by Doctors Pereira-Dopazo and Bandin from the Aquaculture Institute of the University of Santiago de Coompostela, was cultured in MEM medium equilibrated with Hanks’ balanced salts (Gibco, Thermo Fischer Sci., Waltham, MA, USA) supplemented with 10% foetal bovine serum and 10 mL/L of 100X antibiotic–antimycotic solution. Cells were maintained subconfluent at 25 °C in a cell culture incubator and used when the confluence reached 75%.
(§2) Cell viability was then estimated by the MTT (3-(4,5-dimethylthiazol-2-yl)-2,5-diphenyl tetrazolium bromide) assay, as previously described, with minor modifications. Briefly, 100 μL of the MTT solution (1 mg/mL in phosphate-buffered saline; pH 7.2) was added to each well, and plates were incubated at 25 °C for 4 h. The yellow tetrazolium salt of MTT is reduced by mitochondrial dehydrogenases in metabolically active cells to form insoluble purple formazan crystals, which are then dissolved by the addition of DMSO (50 μL/well). Prior to the addition of MTT or DMSO, the plates were washed, and the supernatant was removed. The absorbance was measured at 540 nm in a microplate reader (Multiskan™, Thermo Fischer Sci., Waltham, MA, USA), and the relative cell viability was expressed as the mean percentage of viable cells relative to untreated cells.
(§3) In the viability assay, the possible effect of DMSO was evaluated for each compound by the inclusion of three replicate wells with MEM medium and the same DMSO concentration as in the medium. […] Control cells with only MEM were also included in the assay.
Background: Tetrazolium dyes change colour on reduction, which living cells bring about.

Series [3] is described as follows: Toxicity to EPC cell line, MTT assay. Type of series: cell-based, fish. The settings on record: fish. The procedure: as §1, §2, §3
For the next series, the system named is Saprolegnia delica. Also on record: method as in PMID 32154278. The settings on record: 0.1 mM; cited from earlier work.
The mark [4] stands for this setting: 100 μM, culture medium, mean ± SD of three replicates.
[5] abbreviates: 24 h, read-out: GI50 24 h (compound concentration that inhibited 50% of parasite growth).
Where [6] appears, read: 48 h, read-out: GI50 48 h (compound concentration that inhibited 50% of parasite growth).

Where “and” joins values, the source holds several entries; their conditions need not be identical. Identical values can stand only once. Like-named read-outs stand apart in the source and are kept apart here.

For the molecule `Oc1ccc(/C=C/c2cc(O)cc(O)c2)cc1` [resveratrol], the “efficacy against P. dicentrarchi” value in the series with P. dicentrarchi was “effective”.
With `C[C@H]1CC[C@]2(NC1)O[C@H]1C[C@H]3[C@@H]4CC[C@H]5C[C@@H](O[C@@H]6O[C@H](CO)[C@H](O[C@@H]7O[C@H](CO)[C@@H](O)[C@H](O[C@@H]8OC[C@@H](O)[C@H](O)[C@H]8O)[C@H]7O[C@@H]7O[C@H](CO)[C@@H](O)[C@H](O)[C@H]7O)[C@H](O)[C@H]6O)CC[C@]5(C)[C@H]4CC[C@]3(C)[C@H]1[C@@H]2C` [Tomatine], the “doses inhibiting dinospore motility” value in the series with Amyloodinium ocellatum is 6.25–50 μg/mL and 0.006–0.05 mM. Moreover, the “radial growth of S. parasitica” value in the series on S. parasitica is given as “inhibited”. Moreover, in [1], the “LC100 (lowest concentration resulting in 100% ciliate mortality)” value was determined as 10 µM. The “Ciliate Mortality 3 h (%)” value in series [2] (setting [4]) was 93.33 ± 2.31%. In addition, in [2] (100 μM, 24 h, culture medium), the “parasites killed after 24 h” value was “killed all the parasites”. In addition, the mortality at 100 µM in series [2] was more than 90%. The values for the GI50 in series [2] (setting [5]) and in series [2] (setting [6]) were 10.1 ± 1.27 µM and 8.51 ± 0.2 µM, respectively. Also, the inhibition at 100 µM in [2] (24 h) was 100%. Moreover, in series [2] (microscopy observation), the “effect on the ciliate (lysis, movement)” value is “very quick lysis of the ciliate”. In the series with rainbow trout, the “toxic effects of administration in the diet” value is given as “did not have toxic effects”. The molecule also gave an EPC cells killed in the series with EPC cells of 43%. The viability at 3 h in series [3] (3 h incubation, compound at its GI50 (24 h), MTT, read-out: EPC Cell Viability (%) Mean ± SD) was determined as 63 ± 6.82%. Further, the viability at 24 h in series [3] (24 h incubation, compound at its GI50 (24 h), MTT, read-out: EPC Cell Viability (%) Mean ± SD) was found to be 57.6 ± 7.7%. Further, the “growth of Saprolegnia delica” value with Saprolegnia delica was “inhibited”.
For `O=C(O[C@@H]1Cc2c(O)cc(O)cc2O[C@@H]1c1cc(O)c(O)c(O)c1)c1cc(O)c(O)c(O)c1` [epigallocatechin gallate], in the series on P. dicentrarchi, the “efficacy against P. dicentrarchi” value is reported as “effective”.
As to `O=c1c2cc(O)c(O)cc2oc2cc(O)c([C@@H]3O[C@H](CO)[C@@H](O)[C@H](O)[C@H]3O)c(O)c12` [mangiferin], the “efficacy against P. dicentrarchi” value in the series with P. dicentrarchi was “effective”.
With `O=C(/C=C/c1ccccc1)c1ccc(O)cc1O` [2′,4′-dihydroxychalcone], in series [1], the “LC100 (lowest concentration resulting in 100% ciliate mortality)” value came out at 70 µM. Further, the “Ciliate Mortality 3 h (%)” value in series [2] (setting [4]) is 99 ± 0.71%. Moreover, in series [2] (100 μM, 24 h, culture medium), the “parasites killed after 24 h” value was “killed all the parasites”. For the same molecule, the mortality at 100 µM in [2] was more than 90%. In addition, the GI50 in series [2] (setting [5]) turned out to be 7.54 ± 1.31 µM. For the same molecule, the inhibition at 100 µM in [2] (24 h) stood at 100%. The GI50 in [2] (setting [6]) was found to be 5.68 ± 0.16 µM. The EPC cells killed result in the series on EPC cells is “about 10%”. For the same molecule, in series [3], the viability at 3 h amounted to 92 ± 2.5% and the viability at 24 h came to 89.7 ± 1.4%.
In the case of `COc1cc(/C=C/C(=O)CC(=O)/C=C/c2ccc(O)c(OC)c2)ccc1O` [curcumin], the “efficacy against P. dicentrarchi” value with P. dicentrarchi is on record as “effective”.
Regarding `C[C@H]1[C@H]2CC[C@H]3[C@@H]4CC=C5C[C@@H](N(C)C)CC[C@]5(C)[C@H]4CC[C@]23CN1C` [Conessine], the “Growth Inhibition 24 h (%)” value in [2] (100 μM, 24 h, culture medium, mean ± SD of three replicates) was 84.42 ± 2.42%. Besides, the mortality at 100 µM in [2] was 50.2 ± 4.5%. Also, the GI50 in series [2] (setting [5]) stood at 12 ± 0.8 µM; in series [2] (setting [6]), 11.2 ± 0.65 µM. Moreover, the inhibition at 100 µM in series [2] (24 h) was more than 80%.
Regarding `COc1cc2c(cc1OC)-c1cc3ccc(OC)c(OC)c3c[n+]1CC2` [Palmatine chloride], the mortality at 100 µM in [2] turned out to be 6.8 ± 0.59%. Besides, the inhibition at 100 µM in series [2] (24 h) stood at 28.5 ± 4.25%.
